Measurements reported in patent US8575185B2, “Compositions, synthesis, and methods of utilizing quinazolinedione derivatives” (Reviva Pharmaceuticals, Inc., priority 2009, dated 2013).
Counter-ions that a name gives are not always drawn.

How the values were obtained:
[1] = biological target: T1, dopamine-D2 short (D2S) receptor (Homo sapiens, UniProt P14416); test: Dopamine, D2s (Human Recombinant) Binding Assay; conditions: human recombinant in CHO cells, [3H]Spiperone
T1 construct: expressed in transfected cells; host or cells: CHO cells
T1 sequence (P14416 1-414 isoform P14416-2): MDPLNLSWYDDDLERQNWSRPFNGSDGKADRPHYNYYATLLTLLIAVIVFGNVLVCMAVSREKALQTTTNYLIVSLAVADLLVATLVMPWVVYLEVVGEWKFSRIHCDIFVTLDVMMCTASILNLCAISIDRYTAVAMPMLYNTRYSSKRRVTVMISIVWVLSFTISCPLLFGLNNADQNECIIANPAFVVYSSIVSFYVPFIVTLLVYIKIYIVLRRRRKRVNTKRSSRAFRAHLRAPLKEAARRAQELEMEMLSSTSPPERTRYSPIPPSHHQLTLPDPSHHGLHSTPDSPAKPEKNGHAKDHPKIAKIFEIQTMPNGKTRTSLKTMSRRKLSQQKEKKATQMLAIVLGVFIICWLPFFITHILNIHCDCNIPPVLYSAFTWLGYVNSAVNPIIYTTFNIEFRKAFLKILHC
Description: Dopamine, D2s (Human Recombinant) Binding Assay
Receptor Source Human recombinant expressed in CHO cells
Radioligand: [^3H]Spiperone (20-60 Ci/mmol)
Control Compound Haloperidol
Incubation Conditions The reactions were carried out in 50 mM TRIS-HCl (pH 7.4) containing 120 mM NaCl, 5 mM KCl, 5 mM MgCl2, 1 mM EDTA for 60 minutes at 25 C. The reaction was terminated by rapid vacuum filtration onto glass fiber filters. Radioactivity trapped onto the filters was determined and compared to control values in order to ascertain any interactions of test compounds with the cloned dopamine-D2 short binding site (Literature Reference: Jarvis, K. R. et al. Journal of Receptor Research 1993, 13(1-4), 573-590; Gundlach, A. L. et al. Life Sciences 1984, 35, 1981-1988.)
(§1) The radioligand binding assays for dopamine-D2S, serotonin-5HT1A and serotonin-5HT2A were carried out at six different concentrations and the test concentrations were 0.5 nM, 1 nM, 10 nm, 100 nM, 300 nM and 1000 nM.

[2] = biological target: T2, serotonin 5-HT1A receptor (Homo sapiens, UniProt P08908); test: Serotonin, 5HT1A (Human Recombinant) Binding Assay; conditions: human recombinant in HEK-293 cells, [3H]-8-OH-DPAT
T2 construct: expressed in transfected cells; host or cells: HEK-293 cells
T2 sequence (P08908 1-422): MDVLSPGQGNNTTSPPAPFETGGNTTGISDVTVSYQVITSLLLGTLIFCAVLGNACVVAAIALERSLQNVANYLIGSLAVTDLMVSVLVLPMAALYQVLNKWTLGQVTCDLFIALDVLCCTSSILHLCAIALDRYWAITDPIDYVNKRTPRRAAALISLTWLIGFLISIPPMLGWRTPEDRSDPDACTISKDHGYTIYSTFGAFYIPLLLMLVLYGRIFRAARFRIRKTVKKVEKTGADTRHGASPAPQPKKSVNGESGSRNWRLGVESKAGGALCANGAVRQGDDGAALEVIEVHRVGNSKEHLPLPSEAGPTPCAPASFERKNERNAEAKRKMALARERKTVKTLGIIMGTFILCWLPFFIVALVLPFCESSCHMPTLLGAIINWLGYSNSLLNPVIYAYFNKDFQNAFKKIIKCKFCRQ
Description: Serotonin, 5HT1A (Human Recombinant) Binding Assay
Receptor Source Human recombinant expressed in HEK-293 cells
Radioligand: [^3H]-8-OH-DPAT (221 Ci/mmol)
Control Compound: 8-OH-DPAT
Incubation Conditions The reactions were carried out in 50 mM TRIS-HCl (pH 7.4) containing 10 mM MgSO4, 0.5 mM EDTA and 0.1% Ascorbic acid at room temperature for 1 hour. The reaction was terminated by rapid vacuum filtration onto glass fiber filters. Radioactivity trapped onto the filters was determined and compared to control values in order to ascertain any interactions of test compounds with the cloned serotonin-5HT1A binding site (Literature Reference: Hoyer, D. et al. Eur. Journal Pharmacol. 1985, 118, 13-23; Schoeffter, P. and Hoyer, D. Naunyn-Schmiedeberg's Arch. Pharmac. 1989, 340, 135-138)
as §1

[3] = biological target: T3, serotonin 5-HT2A receptor (Homo sapiens, UniProt P28223); test: Serotonin, 5HT2a (Human) Binding Assay; conditions: human cortex, [3H]-Ketanserin
T3 construct: Receptor Source Human Cortex; from tissue; host or cells: human cortex
T3 sequence (P28223 whole entry): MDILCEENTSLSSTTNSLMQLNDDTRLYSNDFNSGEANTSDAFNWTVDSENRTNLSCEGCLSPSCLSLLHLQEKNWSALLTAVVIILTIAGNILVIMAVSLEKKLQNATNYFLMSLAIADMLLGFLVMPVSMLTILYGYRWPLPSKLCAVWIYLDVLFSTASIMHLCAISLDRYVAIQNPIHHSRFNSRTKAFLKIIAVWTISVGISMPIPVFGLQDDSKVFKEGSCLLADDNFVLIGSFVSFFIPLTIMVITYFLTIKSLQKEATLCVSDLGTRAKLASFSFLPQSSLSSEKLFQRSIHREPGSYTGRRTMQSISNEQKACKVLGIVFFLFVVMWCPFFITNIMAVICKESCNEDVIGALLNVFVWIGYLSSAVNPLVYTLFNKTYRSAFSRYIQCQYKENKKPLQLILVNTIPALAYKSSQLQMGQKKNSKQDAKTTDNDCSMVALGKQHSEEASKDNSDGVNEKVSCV
Description: Serotonin, 5HT2a (Human) Binding Assay
Receptor Source Human Cortex
Radioligand: [^3H]-Ketanserin (60-90 Ci/mmol)
Control Compound Ketanserin
Incubation Conditions: The reactions were carried out in 50 mM TRIS-HCl (pH 7.6) at room temperature for 90 minutes. The reaction was terminated by rapid vacuum filtration onto glass fiber filters. Radioactivity trapped onto the filters was determined and compared to control values in order to ascertain any interactions of test compounds with the serotonin-5HT2A binding site (Literature Reference: Leysen, J. E. et al. Mol. Pharmacol. 1982, 21, 301-314; Martin, G. R. and Humphrey, P. P. A. Neuropharmacol. 1994, 33(3/4), 261-273.)
as §1

SMILES	IC50 [1]	Ki [1]	IC50 [2]	Ki [2]	IC50 [3]	Ki [3]
COc1ccccc1N1CCN(CCCCOc2ccc3c(=O)[nH]c(=O)[nH]c3c2)CC1 [Compound 10a, 7-(4-(4-(2-Methoxyphenyl)piperazin-1-yl)butoxy)quinazoline-2,4(1H, 3H)-dione hydrochloride]	2.5 nM	0.74 nM	1.09 nM	0.66 nM	268 nM	131 nM
O=c1[nH]c(=O)c2ccc(OCCCCN3CCN(c4cccc(Cl)c4Cl)CC3)cc2[nH]1 [Compound 10b, 7-(4-(4-(2,3-Dichlorophenyl)piperazin-1-yl)butoxy)quinazoline-2,4(1H, 3H)-dione hydrochloride]	1.35 nM	0.43 nM	1.63 nM	0.99 nM	38.3 nM	20.4 nM
O=c1[nH]c2ccccc2c(=O)n1CCCCN1CCN(c2cccc(Cl)c2Cl)CC1 [Compound 17b, 3-(4-(4-(2,3-Dichlorophenyl)piperazin-1-yl)butyl)quinazoline-2,4(1H, 3H)-dione hydrochloride]	6.35 nM	1.87 nM	0.95 nM	0.58 nM	82.6 nM	40.5 nM
